This is an account of results in the NIST ThermoML archive (doi:10.1016/j.jct.2013.01.010).

The conditions of the data set: 101.33 kPa, Liquid; for speed of sound: Sing-around technique in a fixed-path interferometer; for mass density: Vibrating tube method.

Numbers after ± are expanded uncertainties.

The term speed of sound denotes the propagation velocity of pressure waves in the medium. By mass density is commonly meant the mass of a sample divided by its volume. Turning to `CCn1cc[n+](C)c1.F[B-](F)(F)F` [1-ethyl-3-methylimidazolium tetrafluoroborate], the speed of sound (293.15 K) worked out at 1631 ± 2.4 m/s, the speed of sound (298.15 K) stood at 1619.4 ± 2.4 m/s, the speed of sound (303.15 K) was determined as 1607.6 ± 2.4 m/s and the speed of sound (308.15 K) came to 1596.3 ± 2.4 m/s. Further, the mass density (293.15 K) was found to be 1283.89 ± 1.5 kg/m3, the mass density (298.15 K) turned out to be 1279.91 ± 1.5 kg/m3, the mass density (303.15 K) stood at 1276.26 ± 1.5 kg/m3 and the mass density (308.15 K) came out at 1272.07 ± 1.4 kg/m3.
As to `CC(C)=O` [acetone], the speed of sound runs as follows: (293.15 K) 1186 ± 1.2 m/s; (298.15 K) 1163.8 ± 1.2 m/s; (303.15 K) 1141.4 ± 1.2 m/s; (308.15 K) 1119.1 ± 1.2 m/s. Besides, the mass density reads like this: (293.15 K) 789.987 ± 0.15 kg/m3; (298.15 K) 784.405 ± 0.15 kg/m3; (303.15 K) 778.871 ± 0.15 kg/m3; (308.15 K) 773.066 ± 0.15 kg/m3.
Take `C[S+](C)[O-]` [dimethyl sulfoxide]: the speed of sound amounted to 1503.2 ± 1.2 m/s (293.15 K), 1486.3 ± 1.2 m/s (298.15 K), 1469.2 ± 1.2 m/s (303.15 K) and 1452.7 ± 1.2 m/s (308.15 K). In addition, the mass density is 1100.43 ± 0.12 kg/m3 (293.15 K), 1095.42 ± 0.12 kg/m3 (298.15 K), 1090.41 ± 0.12 kg/m3 (303.15 K) and 1085.39 ± 0.12 kg/m3 (308.15 K).
